Reference: patent publication US8173133B2, “Acyl pseudodipeptides which carry a functionalized auxiliary arm” (OM Pharma, priority 1999, dated 2012)
Converted amounts (≈) assume the structure as drawn.

How the values were obtained:
[1] = test system: human peripheral blood mononuclear cells; test: α TNF production by human peripheral blood mononuclear cells; type: cell-based; conditions: for α TNF produced: 18 hours; for α TNF production: up to 100 μg/ml
Protocol: Mononuclear cells of peripheral blood are recovered from buffy coats of 6 healthy donors. Such buffy coat cells are resuspended and mononuclear cells are isolated by centrifugation on a Ficoll-Paque gradient (Amersham Pharmacia). Purified mononuclear cells are resuspended into RPMI-1640 medium supplemented with 10% FCS, antibiotics, mercaptoethanol and L-glutamine. Cell concentration is adjusted to 2×10^6 viable cells/ml
100 μl of each one of these solutions of acyl dipeptide-like compounds bearing an accessory functional side chain spacer, diluted 100-, 10- or 1-fold in RPMI medium 1640, are dispensed into a microtiter plate. Samples are tested in triplicates, and each microtiter plate includes a negative control made up of plain medium. Dilutions of E. coli LPS (ranging grom 1 to 0.00001 μg/ml) are used as a positive control.
100 μl of the cell suspension are added to each well containing product dilute solutions or control. Cells are incubated with the products for 18 hours in an incubator at 37° C., under 5% CO2 and a moisture saturated atmosphere.
At the end of the incubation period, microtiter plates are centrifuged, and the supernatant fluids are pooled and frozen at −80° C. as aliquots until time of ELISA assay.
Concentration of α TNF secreted by mononuclear cells is determined by chemiluminescent ELISA (QuantiGlo #QTAOO R&D kit). 4-fold supernatant fluid dilutions are dispensed into each well of the microtiter plate to which anti-αTNF antibodies are bound. The microtiter plate is incubated for 4 hours at room temperature. After washing, peroxidase-conjugated anti-human a TNF antibody is added. Following a 2 hour incubation period and thorough washing, a chemiluminescent substrate is added and chemilunescence is read after 20 minutes. α TNF content in the supernatant fluid is determined with respect to a standard curve covering the 7000 to 0.7 pg/ml range.
Results are expressed in pg/ml of α TNF produced. Results derive from an experiment representative of acyl-dipeptide-like compound activity

murine macrophage cells = test: nitric oxide production by murine macrophage cells (Griess); type: cell-based, C57/BL6 mice; conditions: for Max concentration: concentration at maximum amplitude; for EC50 conc: concentration corresponding to 50% of maximum amplitude; for Min concentration: lowest concentration inducing a significant response
Excerpt: Six-week old male C57/BL6 mice are killed by CO2 inhalation. The hip, femur, tibia and posterior appendage bones are removed. The bone marrow is extracted from the bone lumen by injecting Dulbecco's Modified Eagle Medium (DH medium) from the end portions which had been excised. The stem cells are washed and resuspended (approximate cell concentration 4000 cells/ml) in DH medium supplemented with 20% equine serum (SH) and 30% L929 cell supernatant. L929 is a murine fibroblast cell line the supernatant fluid of which is rich in growth factor for macrophage cells (M-CSF). The cell suspension is divided into Petri dishes which are incubated for 8 days in an incubator at 37° C. under 8% CO2 and a moisture saturated atmosphere.
After 8 days, the stem cells have differentiated into mature macrophage cells. The macrophage cells are scraped off by rapid cooling, washed and resuspended in DH medium supplemented with 5% foetal calf serum (FCS), amino acids and antibiotics. The cell density is adjusted to 700 000 cells/ml.
Products previously dissolved in DH medium supplemented with 5% FCS, amino acids and antibiotics are serially diluted directly in microtiter plates. The products are tested in triplicates and each microtiter plate comprises a negative control containing plain medium. The final volume in each well is 100 μl.
100 μl of cell suspension are added to diluted solutions of such products and the cells are incubated for 22 hours in an incubator at 37° C., under 8% CO2 and a moisture saturated atmosphere. At the end of the incubation period with the products, 100 μl of supernatant are withdrawn and the nitrite concentration is determined by running a Griess reaction.
100 μl of Griess reagent (5 mg/ml of sulfanilamide+0.5 mg/ml of N-(1-naphtylethylene diamine hydrochloride)) in 2.5% aq. phosphoric acid, are added to each well. The microtiter plates are read with a spectrophotometer at 562 nm wavelength against a reference sample at 690 nm. The nitrite concentration is proportional to nitric oxide content being formed. The nitrite content is determined based on a standard curve.
The results are given as mean value±standard deviation and plotted as a dose versus response curve.
From this dose versus response curve, 3 curve variables are computed:
Max: maximum curve amplitude and corresponding concentration
EC50: concentration corresponding to 50% of maximum amplitude
Min: lowest concentration inducing a significant proliferation corresponding to the blank±3× standard deviation value
Concentration values corresponding to EC50 and Min are determined from line segments joining different points on the curve.
If the curve has no plateau phase but an ascending configuration for the highest concentration being tested, a “>” sign is shown before “Max” and “EC50” values.

SMILES | α TNF produced ([1]; product 1 μg/ml) [pg/mL] | α TNF produced ([1]; product 10 μg/ml) [pg/mL] | α TNF produced ([1]; product 100 μg/ml) [pg/mL] | Max concentration (murine macrophage cells) [µg/mL] | EC50 conc (murine macrophage cells) [µg/mL] | Min concentration (murine macrophage cells) [µg/mL] | α TNF production [1] | concentration at which a significant α TNF production level is induced ([1]; only at this concentration) [µg/mL] | nitric oxide production (murine macrophage cells)
CCCCCCCCCCCC(=O)O[C@H](CCCCCCCCCCC)CC(=O)N[C@H](CC(=O)O)C(=O)NCCC[C@H](COC(=O)CCCCCNC(=O)CCC(=O)O)NC(=O)C[C@H](O)CCCCCCCCCCC [OM-197-MC-AC-Succ, N—[(R)-3-dodecanoyloxytetradecanoyl]-D-aspartic acid, α-N-{(4R)-5-(6-succinylamidohexanoxyloxy)-4[(R)-3-hydroxy-tetradecanoylamino]pentyl}amide] | 0 | 32 | 40 | > 16 | 0.72 (≈ 0.666 µM) | 0.28 |  |  | 
CCCCCCCCCCCC(=O)O[C@H](CCCCCCCCCCC)CC(=O)N[C@@H](CCOP(=O)(O)O)C(=O)NCCC[C@H](COC(=O)CCCCCO)NC(=O)C[C@H](O)CCCCCCCCCCC [OM-197-MP-AC (S, R), (3S,9R)-3-[(R)-3-dodecanoyloxytetradecanoylamino]-4-oxo-5-aza-9-[(R)-3-hydroxytetradecanoylamino]-1,10-diol 1-dihydrogenphosphate 10-(6-hydroxyhexanoate)] | 488 | 124 | 80 | 40 | 3.28 (≈ 3.13 µM) | 0.59 |  |  | 
CCCCCCCCCCC[C@@H](O)CC(=O)N[C@H](CCCNC(=O)[C@@H](CC(=O)O)NC(C)=O)COC(=O)CCCCCN [OM-197-N′C2-MC-AC, N-acetyl-D-aspartic acid, α-N-{(4R)-5-(6-aminohexanoyloxy)-4-[(R)-3-hydroxytetradecanoylamino]-pentyl}amide] | 0 | 0 | 0 | 200 |  |  | do not induce any αTNF production |  | 
CCCCCCCCCCCC(=O)O[C@H](CCCCCCCCCCC)CC(=O)N[C@H](CC(=O)O)C(=O)NCCC[C@H](COP(=O)(O)O)NC(=O)C[C@H](O)CCCCCCCCCCC [OM-197-MC-MP, N—[(R)-3-dodecanoyloxytetradecanoyl]-D-aspartic acid, α-N-{(4R)-5-dihydroxyphosphoryloxy-4-[(R)-3-hydroxytetradecanoyl-amino]pentyl}amide] | 0 | 0 | 72 | 51 | 1.18 (≈ 1.24 µM) | 0.11 |  | 100 | 
CCCCCCCCCCCC(=O)O[C@H](CCCCCCCCCCC)CC(=O)N[C@H](CC(=O)O)C(=O)NCCC[C@H](COC(=O)CCCCCO)NC(=O)C[C@H](O)CCCCCCCCCCC [OM-197-MC-FV7, N—[(R)-3-dodecanoyloxytetradecanoylamino]-D-aspartic acid, α-N-{(4R)-5-hydroxy-4-[(R)-3-hydroxytetradecanoylamino]pentyl}amide 5-O-(6-hydroxyhexanoate)] | 0 | 80 | 76 | > 25.6 | > 3.70 | 0.36 |  |  | 
CCCCCCCCCCCC(=O)O[C@H](CCCCCCCCCCC)CC(=O)NC(CCOP(=O)(O)O)C(=O)NCCCC(COC(=O)CCCCCO)NC(=O)C[C@H](O)CCCCCCCCCCC (stereo partly drawn) [OM-197-FV8, 3-[(R)-3-dodecanoyloxytetradecanoylamino]-4-oxo-5-aza-9-[(R)-3-hydroxytetradecanoylamino]-decan-1,10-diol 1-dihydrogenphosphate 10-(6-hydroxyhexanoate)] | 12 | 100 | 252 | 51 | 7.89 (≈ 7.53 µM) | 1.45 |  |  | 
CCCCCCCCCCC[C@@H](O)CC(=O)N[C@H](CCCNC(=O)[C@@H](CC(=O)O)NC(=O)C(CCCCCC)OC(=O)CCCCCCCCC)COC(=O)CCCCCN (stereo partly drawn) [OM-197-N′(C10-20C8)-MC-AC, N-(2-decanoyloxyoctanoyl)-D-aspartic acid, α-N-{(4R)-5-(6-aminohexanoyloxy)-4-[(R)-3-hydroxytetradecanoylamino]-pentyl}amide] | 0 | 0 | 0 | > 100 | 61.05 (≈ 70.2 µM) | 54.3 | do not induce any αTNF production |  | minor production
